The CheMixHub viscosity set

Assay: xn = mol fraction of the nth substance listed

CCCCCOC(C)=O + CCOc1ccccc1
Conditions | viscosity [mPa·s]
298.15 K, 101 kPa, x2 = 0.5 | 0.855

CCCCCOC(C)=O + CCc1ccccc1
Conditions | viscosity [mPa·s]
298.15 K, 101 kPa, x2 = 0.089 | 0.7697

CC(C)CO + CN1CCCC1=O
298.15 K, 101 kPa
Conditions | viscosity [mPa·s]
x2 = 0.0577 | 2.895
x2 = 0.1202 | 2.548
x2 = 0.1587 | 2.399
x2 = 0.2004 | 2.276
x2 = 0.2421 | 2.18
x2 = 0.3117 | 2.053
x2 = 0.368 | 1.982
x2 = 0.4264 | 1.931
x2 = 0.4568 | 1.896
x2 = 0.5217 | 1.854
x2 = 0.5616 | 1.83
x2 = 0.6113 | 1.82
x2 = 0.6662 | 1.796
x2 = 0.711 | 1.776
x2 = 0.7618 | 1.752
x2 = 0.8039 | 1.747
x2 = 0.8557 | 1.717
x2 = 0.8982 | 1.704
x2 = 0.9723 | 1.677

O=C1CCCN1C1CCCCC1 + CN1CCCC1=O
298.15 K, 100 kPa
Conditions | viscosity [mPa·s]
x2 = 0.0108 | 10.21
x2 = 0.0206 | 9.998
x2 = 0.026 | 9.92
x2 = 0.0415 | 9.645
x2 = 0.046 | 9.574
x2 = 0.06 | 9.318
x2 = 0.0748 | 9.054
x2 = 0.0872 | 8.858
x2 = 0.094 | 8.735
x2 = 0.2076 | 7.103
x2 = 0.302 | 5.992
x2 = 0.4096 | 4.942
x2 = 0.5043 | 4.171
x2 = 0.61 | 3.449
x2 = 0.7 | 2.937
x2 = 0.8042 | 2.436
x2 = 0.9004 | 2.038
x2 = 0.9083 | 2.005
x2 = 0.9175 | 1.967
x2 = 0.9328 | 1.93
x2 = 0.9426 | 1.884
x2 = 0.9516 | 1.854
x2 = 0.9616 | 1.837
x2 = 0.9708 | 1.795
x2 = 0.9798 | 1.775

C1CCC2=[NH+]CCCN2CC1.c1nc[n-]n1 + CN(C)C=O
303.15 K, 100 kPa
Conditions | viscosity [mPa·s]
x1 = 0.1001 | 1.42
x1 = 0.2 | 3.07
x1 = 0.2999 | 6.28
x1 = 0.4003 | 11.77
x1 = 0.4989 | 25.38
x1 = 0.6002 | 46.11
x1 = 0.7008 | 98.43
x1 = 0.7993 | 195
x1 = 0.9002 | 470.1

O=C1OCCO1 + CNC(C)=O
313.15 K, 101.33 kPa
Conditions | viscosity [mPa·s]
x1 = 0.0747 | 2.732
x1 = 0.1786 | 2.456
x1 = 0.2841 | 2.246
x1 = 0.3817 | 2.099
x1 = 0.4799 | 1.984
x1 = 0.5724 | 1.903
x1 = 0.6726 | 1.845
x1 = 0.7707 | 1.814
x1 = 0.869 | 1.824
x1 = 0.9684 | 1.893

C1CCC2=[NH+]CCCN2CC1.c1nc[n-]n1 + CO
303.15 K, 100 kPa
Conditions | viscosity [mPa·s]
x1 = 0.1001 | 5.23
x1 = 0.2 | 8.57
x1 = 0.2999 | 24.53
x1 = 0.4003 | 57.03
x1 = 0.4989 | 104.5
x1 = 0.6002 | 205.4
x1 = 0.7008 | 366.4
x1 = 0.7993 | 555.9
x1 = 0.9002 | 882.9

C=CC(=O)OC + CO
viscosity [mPa·s], 101.33 kPa
Conditions | 308.15 K | 318.15 K
x1 = 0.0546 | 0.464 | 0.419
x1 = 0.157 | 0.443 | 0.412
x1 = 0.2569 | 0.426 | 0.404
x1 = 0.3537 | 0.413 | 0.397
x1 = 0.453 | 0.403 | 0.388
x1 = 0.501 | 0.399 | 0.384
x1 = 0.5588 | 0.394 | 0.379
x1 = 0.655 | 0.39 | 0.369
x1 = 0.7566 | 0.387 | 0.359
x1 = 0.8561 | 0.387 | 0.349
x1 = 0.9556 | 0.389 | 0.338

CCCCCC + CO
298.15 K, 101.33 kPa
Conditions | viscosity [mPa·s]
x2 = 0.0532 | 0.313
x2 = 0.0601 | 0.313
x2 = 0.138 | 0.317
x2 = 0.154 | 0.319
x2 = 0.2491 | 0.334
x2 = 0.8139 | 0.49
x2 = 0.8529 | 0.502
x2 = 0.8644 | 0.506
x2 = 0.9199 | 0.525
x2 = 0.9494 | 0.539
x2 = 0.9771 | 0.547

CCCCCOC(C)=O + CO
303.15 K, 101.3 kPa
Conditions | viscosity [mPa·s]
x1 = 0.0524 | 0.537
x1 = 0.1018 | 0.561
x1 = 0.1038 | 0.533
x1 = 0.1608 | 0.547
x1 = 0.1934 | 0.608
x1 = 0.3024 | 0.652
x1 = 0.4255 | 0.695
x1 = 0.5168 | 0.719
x1 = 0.5951 | 0.733
x1 = 0.6976 | 0.753
x1 = 0.791 | 0.775
x1 = 0.8949 | 0.794

CCOC(=O)CC + CO
303.15 K, 101.33 kPa
Conditions | viscosity [mPa·s]
x1 = 0.1102 | 0.524
x1 = 0.1551 | 0.525
x1 = 0.2735 | 0.526
x1 = 0.3189 | 0.527
x1 = 0.3721 | 0.528
x1 = 0.4967 | 0.527
x1 = 0.5395 | 0.524
x1 = 0.613 | 0.521
x1 = 0.6625 | 0.518
x1 = 0.7231 | 0.514
x1 = 0.8087 | 0.508
x1 = 0.9141 | 0.501

O=C1CCCN1C1CCCCC1 + CO
298.15 K, 100 kPa
Conditions | viscosity [mPa·s]
x1 = 0.0094 | 0.589
x1 = 0.0192 | 0.625
x1 = 0.0288 | 0.657
x1 = 0.0387 | 0.69
x1 = 0.0495 | 0.727
x1 = 0.053 | 0.743
x1 = 0.067 | 0.804
x1 = 0.0764 | 0.832
x1 = 0.0858 | 0.866
x1 = 0.0883 | 0.874
x1 = 0.094 | 0.91
x1 = 0.191 | 1.366
x1 = 0.2811 | 1.92
x1 = 0.3806 | 2.649
x1 = 0.48 | 3.553
x1 = 0.5758 | 4.526
x1 = 0.6836 | 5.807
x1 = 0.7845 | 7.171
x1 = 0.8973 | 8.652
x1 = 0.9035 | 8.749
x1 = 0.9182 | 8.971
x1 = 0.9294 | 9.118
x1 = 0.9448 | 9.356
x1 = 0.9517 | 9.496
x1 = 0.965 | 9.7
x1 = 0.9749 | 9.843
x2 = 0.0157 | 10
